From publication PMC6130543, “Immunomodulatory activities of isolated compounds from the root-bark of Cussonia arborea” (Pharmaceutical Biology, 2017)
In brackets after ≈: the same amount, converted by molar mass. Read-outs that look alike come from different tables or passages of the source.

Key:
[1] = test system: serum opsonized zymosan activated whole blood phagocytes (intracellular ROS production); test: Oxidative burst assay (luminol-enhanced chemiluminescence); type: cell-based, human; details: for inhibition of production of ROS (in words): zymosan activated whole blood phagocytes, 1-100 µg/mL; for IC50: read-out: ROS inhibition (IC50± SD µg/mL)
[2] = test system: phytoheamagglutinin (PHA) activated T-cells; test: 3H-Thymidine incorporated T-cell proliferation assay; type: cell-based, human; details: for inhibition of T-cell proliferation (in words): PHA activated T-cells, 1-100 µg/mL; for IC50: read-out: T-cell proliferation inhibition (IC50± SD µg/mL)
Protocol: Lymphocytes were isolated from human heparinized blood. Briefly 10 mL of blood was aseptically collected in heparin containing tube from healthy volunteer. Blood was then mixed with equal volume (1:1) of incomplete RPMI (Roswell Park Memorial Institute) media in 50 mL sterile falcon tube. Lymphocyte separation media (LSM) (5 mL) was added into two sterile 15 mL falcon tubes and 10 mL of the mixture containing blood and RPMI was gently layered on LSM in each tube. Tubes were then centrifuged at 400 g for 20 min at room temperature. The buffy layer appeared at the interface of LSM and plasma was carefully collected and washed at 4 °C for 10 min at 300 g. The supernatant was discarded and pellet containing peripheral blood mononuclear cells (PBMNCs) was collected. Cell viability and counting was performed using trypan blue dye. ^3H-Thymidine incorporated T-cell proliferation assay was performed as described by […] et al. ([2009]). […] After that 50 μL of isolated PBMNCs were added at a concentration of (2 × 10^6 cell/mL). Cells were then stimulated by adding 50 μL of 7.5 μg/mL […]) which acts as mitogen only for T-cells among other PBMNCs. […] The wells received 50 μL cells and 150 μL of 5% FCS/RPMI served as negative control where as positive control contains 50 μL cells, 50 μL of PHA-L and 100 μL of 5% FCS/RPMI. […] Plates were then incubated for 72 h at 37 °C in 5% CO2 incubator. After 72 h, cultures were pulsed with 25 μL of 0.5 μCi/well ^3H-thymidine [Hartmann Analytic, Braunschweig, Germany], and plates were further incubated for 18 h. After incubation cells were harvested using a glass fibre filter and cell harvester [Inotech, Dottikon, Switzerland]. The level of the ^3H-thymidine incorporated into the cells was measured by a LS65000 liquid scintillation counter [Beckman coulter, Fullerton, CA, USA]. Results were expressed as mean count per minutes (CPM). The 50% inhibitory concentration (IC50) values were calculated for all tested compounds.

[3] = test system: NIH-3T3 fibroblast cells; test: MTT cytotoxicity assay; type: cell-based; details: MTT, 48 h; three doses (1, 10 and 100 µg/mL); mean ± SD of three determinations
Protocol: (§1) Cytotoxicity of test compounds on NIH-3T3 fibroblast cells (ATCC, Manassas, VA, USA) was evaluated by using the standard MTT colorimetric assay. Briefly 100 μL of 5 × 10^4 cells/mL in Dulbacco’s modified eagles medium (DMEM) supplemented with 10% foetal bovine serum (FBS) were plated into 96-wells flat bottom plate and incubated overnight at 37 °C in 5% CO2. Three different concentrations of test compound (1, 10 and 100 µg/mL) were added to the plate in triplicates and incubated for 48 h. 0.5 mg/mL MTT (50 µL) was added to each well, the plate was then further incubated for 4 h. MTT was aspirated and 100 µL of dimethyl sulfoxide (DMSO) was then added to each well. The extent of MTT reduction to formazan within cells was calculated by measuring the absorbance at 540 nm, using spectrophotometer (Spectra Max plus, Molecular Devices, CA, USA). The cytotoxic activity was recorded as concentration causing 50% growth inhibition (IC50) for 3T3 cells. Cycloheximide was used as standard drug.

[4] = MTT cytotoxicity assay; type: cell-based; details: mouse
Protocol: as §1

[5] = test system: whole blood lymphocyte proliferation; set-up: method as in Magee et al. [2002]; details: similar work; ref Magee et al. [2002]; cited from earlier work
[6] = zymosan activated human whole blood phagocytes, luminol probe, three doses (1, 10 and 100 µg/mL), mean ± SD of three determinations
[7] = MTT, 48 h, three doses (1, 10 and 100 µg/mL), mean ± SD of three determinations, read-out: Cytotoxicity on NIH 3T3-cells (IC50± SD µg/mL)
[8] = T-cell, PHA-L activated human T-cells, 72 h + 18 h 3H-thymidine, three doses (1, 10 and 100 µg/mL), mean ± SD of three determinations

For CC[C@H](/C=C/[C@@H](C)[C@H]1CC[C@H]2[C@@H]3CC=C4C[C@@H](O[C@@H]5O[C@H](CO)[C@@H](O)[C@H](O)[C@H]5O)CC[C@]4(C)[C@H]3CC[C@]12C)C(C)C [Compound 4, 3-O-β-D-glucopyranosyl stigmasterol], which “ROS inhibition (IC50± SD µg/mL)” value [1, 6] is on record?
The value was >100 µg/mL.

What about the “inhibition of production of ROS (in words)” value [1] of the same compound?
The value was “did not inhibit”.

And the “inhibition of T-cell proliferation (in words)” value [2]?
The value was “no inhibition”.

And the “T-cell proliferation inhibition (IC50± SD µg/mL)” value ([2]; PHA-L activated human T-cells, 72 h + 18 h 3H-thymidine, three doses (1, 10 and 100 µg/mL), mean ± SD of three determinations)?
The value was >100 µg/mL.

What about the “Cytotoxicity on NIH 3T3-cells (IC50± SD µg/mL)” value [3] of the same compound?
The value was >100 µg/mL.

Which IC50 [1, 6] does the source give for CC[C@H](/C=C/[C@@H](C)[C@H]1CC[C@H]2[C@@H]3CC=C4C[C@@H](O)CC[C@]4(C)[C@H]3CC[C@]12C)C(C)C [Compound 3, stigmasterol] here?
Its IC50 is > 100 µg/mL.

And the “inhibition of production of ROS (in words)” value [1]?
The value was “did not inhibit”.

What about the IC50 [4, 7] of the same compound?
Its IC50 is > 100 µg/mL.

With CC(C)Cc1ccc(C(C)C(=O)O)cc1 (centres unmarked) [Ibuprofen, reference compound] as the compound, how does the IC50 [1, 6] read?
Its IC50 is 11.2 ± 1.9 µg/mL.

Which IC50 at 48 h [4, 7] does the source give for C[C@@H]1C[C@@H]([C@H](O)CC2CC(=O)NC(=O)C2)C(=O)[C@@H](C)C1 [Cyclohexamide, Cycloheximide, reference compound] here?
The IC50 at 48 h was 0.13 ± 0.02 µg/mL (≈ 0.462 µM).

With CC1(C)CC[C@]2(C(=O)O)CC[C@]3(C)C(=CC[C@@H]4[C@@]5(C)CC[C@H](O)[C@@](C)(CO)[C@@H]5CC[C@]43C)[C@@H]2C1 [Compound 1, 3, 23-dihydroxy-12-oleanen-28-oic acid] as the compound, how does the IC50 [1, 6] read?
Its IC50 is 24.4 ± 4.3 µg/mL.

What about the “inhibition of T-cell proliferation (in words)” value [2] of the same compound?
Its value is “no inhibition”.

What about the IC50 [2, 8] of the same compound?
The IC50 was > 100 µg/mL.

What about the IC50 at 48 h [4] of the same compound?
The IC50 at 48 h was > 100 µg/mL.

Which IC50 [1, 6] does the source give for CC1(C)CC[C@]2(C(=O)O)CC[C@]3(C)C(=CC[C@@H]4[C@@]5(C)CC[C@H](O)C(C)(C)[C@@H]5CC[C@]43C)[C@@H]2C1 [Compound 2, 3β-hydroxylolean-12-en-28-oic] here?
The IC50 was 37.5 ± 0.1 µg/mL.

What about the IC50 [2, 8] of the same compound?
Its IC50 is 12.6 ± 0.4 µg/mL.

What about the IC50 at 48 h ([4]; NIH-3T3 fibroblast cells, MTT, 48 h, three doses (1, 10 and 100 µg/mL), mean ± SD of three determinations, read-out: Cytotoxicity on NIH 3T3-cells (IC50± SD µg/mL)) of the same compound?
The IC50 at 48 h was > 100 µg/mL.

What does the source list for C[C@]12C=CC(=O)C=C1CC[C@@H]1[C@@H]2[C@@H](O)C[C@@]2(C)[C@H]1CC[C@]2(O)C(=O)CO [Prednisolone, prednisolone, reference compound]?
inhibition at 0.62 µg/mL ([2]; Homo sapiens, T-cell, at lowest tested concentration (0.62 µg/mL), PHA activator): 64.3 ± 2%; IC50 [2, 8]: < 0.62 µg/mL; IC50 of prednisolone (lymphocyte proliferation) [5]: 38.8 ng/mL
